Experimental data: ChEMBL document CHEMBL4334539, “Discovery of VU6015929: A Selective Discoidin Domain Receptor 1/2 (DDR1/2) Inhibitor to Explore the Role of DDR1 in Antifibrotic Therapy” (ACS Med Chem Lett, 2020)

Assays:
[1] = biological target: T1, Discoidin domain-containing receptor 2 (Homo sapiens, UniProt Q16832); test: Inhibition of kinase tracer 178 binding to recombinant human His-tagged DDR2 expressed in baculovirus infected Sf9 cells incubated for 1 hr by TR-FRET based LanthaScreen Eu kinase binding assay
T1 sequence (Q16832 whole entry): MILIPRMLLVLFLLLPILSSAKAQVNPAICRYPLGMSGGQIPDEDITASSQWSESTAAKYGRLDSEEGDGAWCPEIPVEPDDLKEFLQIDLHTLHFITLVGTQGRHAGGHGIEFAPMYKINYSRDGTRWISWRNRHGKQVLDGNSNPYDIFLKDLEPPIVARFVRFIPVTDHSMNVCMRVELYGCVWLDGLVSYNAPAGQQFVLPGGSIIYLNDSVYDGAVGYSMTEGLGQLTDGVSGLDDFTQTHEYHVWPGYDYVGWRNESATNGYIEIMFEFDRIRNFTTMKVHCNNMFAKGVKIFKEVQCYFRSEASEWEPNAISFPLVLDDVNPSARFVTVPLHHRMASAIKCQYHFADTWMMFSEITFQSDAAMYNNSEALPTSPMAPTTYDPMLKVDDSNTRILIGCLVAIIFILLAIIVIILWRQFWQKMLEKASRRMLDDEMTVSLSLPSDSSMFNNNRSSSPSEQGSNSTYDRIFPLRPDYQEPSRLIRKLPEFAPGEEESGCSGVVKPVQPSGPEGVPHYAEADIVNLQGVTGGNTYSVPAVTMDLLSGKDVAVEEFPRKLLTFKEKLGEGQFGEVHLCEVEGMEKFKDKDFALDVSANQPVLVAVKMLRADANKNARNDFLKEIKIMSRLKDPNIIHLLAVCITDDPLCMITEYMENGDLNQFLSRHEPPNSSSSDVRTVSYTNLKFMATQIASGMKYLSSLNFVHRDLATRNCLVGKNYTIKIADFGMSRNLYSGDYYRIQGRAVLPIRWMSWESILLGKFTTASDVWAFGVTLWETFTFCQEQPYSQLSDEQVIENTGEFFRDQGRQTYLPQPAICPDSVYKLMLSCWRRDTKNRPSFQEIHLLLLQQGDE

[2] = Oral bioavailability in Sprague-Dawley rat at 3 mg/kg measured upto 24 hrs by LC/MS/MS analysis; type: ADME, organism-based; details: in vivo
[3] = Volume of distribution at steady state in Sprague-Dawley rat at 0.5 mg/kg, iv or 3 mg/kg, po measured upto 24 hrs by LC/MS/MS analysis; type: ADME, organism-based; details: in vivo, read-out: Vdss
[4] = Tmax in Sprague-Dawley rat at 3 mg/kg, po measured upto 24 hrs by LC/MS/MS analysis; type: ADME, organism-based; details: in vivo
[5] = Clearance in Sprague-Dawley rat at 0.5 mg/kg, iv or 3 mg/kg, po measured upto 24 hrs by LC/MS/MS analysis; type: ADME, organism-based; details: in vivo
[6] = Cytotoxicity against mesangial cells (unknown origin) expressing Hu-DDR1b assessed as reduction in cell viability at 10 uM incubated for 24 hrs by microscopic analysis; type: cell-based
[7] = Metabolic stability in rat liver microsomes assessed as […] at 1 uM incubated for 5 mins followed by NADPH addition and measured upto 45 mins by LC/MS/MS analysis; type: ADME, Microsome; details: read-out: CLH
[8] = Fraction unbound in rat plasma incubated for 4 hrs by LC/MS/MS analysis; type: ADME, cell-free
[9] = Half life in Sprague-Dawley rat at 0.5 mg/kg, iv or 3 mg/kg, po measured upto 24 hrs by LC/MS/MS analysis; type: ADME, organism-based; details: in vivo
[10] = biological target: Epithelial discoidin domain-containing receptor 1 (Homo sapiens, UniProt Q08345); test: Inhibition of FLAG-tagged DDR1 in human HEK293 cells assessed as reduction in collagen-1-induced DDR1 phosphorylation incubated for 18 hrs by ELISA
Sequence of Epithelial discoidin domain-containing receptor 1 (Q08345 whole entry, the tested form may be a part): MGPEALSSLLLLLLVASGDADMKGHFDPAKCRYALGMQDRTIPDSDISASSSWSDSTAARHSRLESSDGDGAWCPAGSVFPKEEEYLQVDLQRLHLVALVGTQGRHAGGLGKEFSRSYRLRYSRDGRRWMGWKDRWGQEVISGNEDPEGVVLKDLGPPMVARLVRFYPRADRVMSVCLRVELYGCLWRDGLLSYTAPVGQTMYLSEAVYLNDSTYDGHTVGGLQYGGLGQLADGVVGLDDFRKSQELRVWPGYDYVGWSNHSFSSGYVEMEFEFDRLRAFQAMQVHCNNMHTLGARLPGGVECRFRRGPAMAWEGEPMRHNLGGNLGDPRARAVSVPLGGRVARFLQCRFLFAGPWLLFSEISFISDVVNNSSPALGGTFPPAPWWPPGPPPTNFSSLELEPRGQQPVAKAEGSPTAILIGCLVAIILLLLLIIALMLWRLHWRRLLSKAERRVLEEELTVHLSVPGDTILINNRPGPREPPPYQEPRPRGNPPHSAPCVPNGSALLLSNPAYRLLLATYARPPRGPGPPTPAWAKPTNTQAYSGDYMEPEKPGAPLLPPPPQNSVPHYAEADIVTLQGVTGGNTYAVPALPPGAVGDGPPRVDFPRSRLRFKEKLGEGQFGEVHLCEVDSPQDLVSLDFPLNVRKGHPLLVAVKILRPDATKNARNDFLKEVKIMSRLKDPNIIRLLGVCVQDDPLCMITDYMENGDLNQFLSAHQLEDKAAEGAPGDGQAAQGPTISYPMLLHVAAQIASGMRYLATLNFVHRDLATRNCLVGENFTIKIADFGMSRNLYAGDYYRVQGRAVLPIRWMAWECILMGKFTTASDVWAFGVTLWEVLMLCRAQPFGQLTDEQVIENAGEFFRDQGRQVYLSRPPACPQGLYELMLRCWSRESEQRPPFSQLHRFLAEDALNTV

[11] = Cytotoxicity against mesangial cells (unknown origin) expressing Hu-DDR1b assessed as reduction in cell viability at 1 uM incubated for 24 hrs by microscopic analysis; type: cell-based

| Compound | IC50 [1] [nM] | CLint scaled at 1 µM [7] [L/h/kg] | fraction unbound at 4 h [8] | also measured |
| --- | --- | --- | --- | --- |
| Cc1ccc(C(=O)Nc2cccc(C(F)(F)F)c2)cc1NCc1cncc(C(N)=O)c1 | 4.79 |  |  |  |
| Cc1ccc(C(=O)Nc2cccc(C(F)(F)F)c2)cc1NCc1cccnc1 | 10.6 |  |  |  |
| COc1cncc(CNc2cc(C(=O)Nc3cccc(C(F)(F)F)c3)ccc2C)c1 | 6.36 |  |  |  |
| Cc1ccc(C(=O)Nc2ccc(C)c(C(F)(F)F)c2)cc1NCc1cncc(-c2ccc[nH]2)c1 | 44.1 |  |  |  |
| Cn1ccc(-c2cncc(CNc3cc(C(=O)Nc4cccc(OC(F)(F)F)c4)ccc3F)c2)n1 | 7.39 | 2.59 | 0.089 | bioavailability [2]: 12.5%; Vd [3]: 4.3 L/kg; Tmax [4]: 0.75 h; clearance [5]: 2.05 L/h/kg; Activity [6]: Non-Toxic; half-life [9]: 3 h |
| Cc1ccc(C(=O)Nc2cccc(C(F)(F)F)c2)cc1NCc1cncc(-c2ccn(C)n2)c1 | 4.56 | 2.76 | 0.016 |  |
| Cc1ccc(C(=O)Nc2cccc(C(F)(F)F)c2)cc1NCc1cncc(-c2ccc[nH]2)c1 | 11 | 3.72 | 0.001 |  |
| Cc1ccc(C(=O)Nc2cccc(C(F)(F)F)c2)cc1Nc1cncc(C(N)=O)c1 |  | 3.6 | 0.018 | IC50 [10]: 4.8 nM; Activity [11]: Toxic |
